From US6737383B1, “Herbicidal oxadiazolidines” (priority 1999, dated 2004)

What was measured:
purple nutsedge = assay: Test B pre/postemergence purple nutsedge; format: in vivo, Cyperus rotundus
In short: (§1)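 Herbicidal effect was estimated by eye on a ten-point control scale after plants spent twelve to sixteen days in a greenhouse following soil or foliar treatment. Foliar sprays targeted plants at one to four leaves; all doses were formulated in a non-phytotoxic solvent with surfactant.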

smallflower flatsedge = assay: Test B flood test smallflower flatsedge; format: in vivo, Cyperus difformis
In short: (§2)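 Flood test on plants grown to the 2-leaf stage; treated plants kept in greenhouse twelve to sixteen days, then visually rated against controls on a 0 (no effect) to 10 (complete control) scale.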

duck salad = assay: Test B flood test duck salad; format: in vivo, Heteranthera limosa
In short: as §2

sugar beet = assay: Test B pre/postemergence sugar beet; format: in vivo, Beta vulgaris; details: for Plant response rating, Sugarbeets: Rate 250 g/ha
In short: as §1

cocklebur = assay: Test B pre/postemergence cocklebur; format: in vivo, Xanthium strumarium
In short: as §1

bedstraw = assay: Test B pre/postemergence bedstraw; format: in vivo, Galium aparine
In short: as §1

velvetleaf = assay: Test B pre/postemergence velvetleaf; format: in vivo, Abutilon theophrasti; details: for Plant response rating, Velvetleaf: Rate 250 g/ha
In short: as §1

rape = assay: Test B pre/postemergence rape; format: in vivo, Brassica napus
In short: as §1

surinam grass = assay: Test B pre/postemergence surinam grass; format: in vivo, Brachiaria decumbens
In short: as §1

blackgrass = assay: Test B pre/postemergence blackgrass; format: in vivo, Alopecurus myosuroides
In short: as §1

soybean = assay: Test B pre/postemergence soybean; format: in vivo, Glycine max
In short: as §1

corn = assay: Test B pre/postemergence corn; format: in vivo, Zea mays
In short: as §1

morningglory = assay: Test B pre/postemergence morningglory; format: in vivo, Ipomoea hederacea
In short: as §1

bamyardgrass = assay: Test B flood test barnyardgrass; format: in vivo, Echinochloa crus-galli
In short: as §2

giant foxtail = assay: Test B pre/postemergence giant foxtail; format: in vivo, Setaria faberii
In short: as §1

pigweed = assay: Test B pre/postemergence pigweed; format: in vivo, Amaranthus retroflexus
In short: as §1

[1] = Postemergence, Rate 125 g/ha, scale of 0 to 10 where 0 is no effect and 10 is complete control
[2] = Postemergence, Rate 250 g/ha, scale 0 to 10, 0 no effect, 10 complete control
[3] = Preemergence, Rate 62 g/ha, scale 0 to 10 (0 no effect, 10 complete control)
[4] = Preemergence, Rate 125 g/ha, scale 0 to 10 (0 no effect, 10 complete control)
[5] = Preemergence, Rate 250 g/ha, scale of 0 to 10 where 0 is no effect and 10 is complete control
[6] = Preemergence, Rate 500 g/ha, scale 0 to 10 (0 no effect, 10 complete control)
[7] = Rate 62 g/ha, Postemergence, scale of 0 to 10 where 0 is no effect and 10 is complete control
[8] = Rate 500 g/ha, Postemergence, scale 0 to 10, 0 no effect, 10 complete control
[9] = Postemergence (flood test species), Rate 125 g/ha, scale of 0 to 10 where 0 is no effect and 10 is complete control
[10] = Rate 62 g/ha, Postemergence section, flood test species, scale of 0 to 10 where 0 is no effect and 10 is complete control
[11] = Rate 500 g/ha, listed under Postemergence (flood test species), scale 0 to 10, 0 no effect, 10 complete control
[12] = flood test, listed under Postemergence, Rate 250 g/ha, scale 0 to 10, 0 no effect, 10 complete control
[13] = Preemergence, Rate 125 g/ha, 0 is no effect, 10 is complete control
[14] = Preemergence, scale of 0 to 10 where 0 is no effect and 10 is complete control
[15] = Postemergence, scale 0 to 10, 0 is no effect, 10 is complete control
[16] = Postemergence, Rate 62 g/ha, scale 0 to 10, 0 is no effect, 10 is complete control
[17] = Rate 125 g/ha, Postemergence, scale 0 to 10, 0 no effect, 10 complete control
[18] = Rate 250 g/ha, Postemergence, scale 0 to 10, 0 is no effect, 10 is complete control

CC(C)N(C(=O)n1oc(=O)n(C2CCCCC2)c1=O)c1ccc(F)cc1F [Compound 115]
Nutsedge plant response rating (purple nutsedge; [1]): 0 | Nutsedge plant response rating (purple nutsedge; [2]): 0 | Nutsedge plant response rating (purple nutsedge; [3]): 0 | Plant response rating, Nutsedge (purple nutsedge; [4]): 0 | Plant response rating, Nutsedge (purple nutsedge; [5]): 0 | Nutsedge plant response rating (purple nutsedge; [6]): 0 | Nutsedge plant response rating (purple nutsedge; [7]): 0 | Nutsedge plant response rating (purple nutsedge; [8]): 0 | S. Flatsedge plant response rating (smallflower flatsedge; [9]): 0 | S. Flatsedge plant response rating (smallflower flatsedge; [10]): 0 | Plant response rating, S. Flatsedge (smallflower flatsedge; Rate 250 g/ha, Postemergence (flood test), scale 0 to 10, 0 is no effect, 10 is complete control): 0 | S. Flatsedge plant response rating (smallflower flatsedge; [11]): 0 | Ducksalad plant response rating (duck salad; [9]): 0 | Ducksalad plant response rating (duck salad; [10]): 0 | Ducksalad plant response rating (duck salad; [11]): 0 | Ducksalad plant response rating (duck salad; [12]): 0 | Sugarbeets plant response rating (sugar beet; [1]): 3 | Sugarbeets plant response rating (sugar beet; [3]): 0 | Sugarbeets plant response rating (0 to 10 scale) (sugar beet; [13]): 0 | Plant response rating, Sugarbeets (sugar beet; [14]): 0 | Sugarbeets plant response rating (sugar beet; [6]): 5 | Sugarbeets plant response rating (sugar beet; [7]): 2 | Plant response rating, Sugarbeets (sugar beet; [15]): 3 | Sugarbeets plant response rating (sugar beet; [8]): 3 | Cocklebur plant response rating (cocklebur; [1]): 0 | Cocklebur plant response rating (cocklebur; [2]): 1 | Cocklebur plant response rating (cocklebur; [3]): 0 | Plant response rating, Cocklebur (cocklebur; [4]): 0 | Plant response rating, Cocklebur (cocklebur; [5]): 0 | Cocklebur plant response rating (cocklebur; [6]): 0 | Cocklebur plant response rating (cocklebur; [7]): 0 | Cocklebur plant response rating (cocklebur; [8]): 2 | Bedstraw plant response rating (bedstraw; [16]): 0 | Bedstraw plant response rating (bedstraw; [2]): 4 | Bedstraw plant response rating (bedstraw; [3]): 0 | Plant response rating, Bedstraw (bedstraw; [4]): 0 | Plant response rating, Bedstraw (bedstraw; [5]): 0 | Bedstraw plant response rating (bedstraw; [6]): 0 | Bedstraw plant response rating (bedstraw; [17]): 0 | Velvetleaf plant response rating (velvetleaf; [1]): 0 | Velvetleaf plant response rating (velvetleaf; [3]): 0 | Velvetleaf plant response rating (0 to 10 scale) (velvetleaf; [13]): 0 | Plant response rating, Velvetleaf (velvetleaf; [14]): 2 | Velvetleaf plant response rating (velvetleaf; [6]): 2 | Velvetleaf plant response rating (velvetleaf; [7]): 0 | Plant response rating, Velvetleaf (velvetleaf; [15]): 0 | Velvetleaf plant response rating (velvetleaf; [8]): 0 | Rape plant response rating (rape; [1]): 0 | Rape plant response rating (rape; [2]): 0 | Rape plant response rating (rape; [3]): 0 | Plant response rating, Rape (rape; [4]): 0 | Plant response rating, Rape (rape; [5]): 0 | Rape plant response rating (rape; [6]): 5 | Rape plant response rating (rape; [7]): 0 | Rape plant response rating (rape; [8]): 0 | B. signalgrass plant response rating (surinam grass; [16]): 0 | B. signalgrass plant response rating (surinam grass; [2]): 0 | B. signalgrass plant response rating (surinam grass; [3]): 2 | Plant response rating, B. signalgrass (surinam grass; [4]): 2 | Plant response rating, B. signalgrass (surinam grass; [5]): 4 | B. signalgrass plant response rating (surinam grass; [6]): 10 | B. signalgrass plant response rating (surinam grass; [17]): 0 | B. signalgrass plant response rating (surinam grass; Rate 500 g/ha, Postemergence, scale of 0 to 10 where 0 is no effect and 10 is complete control): 8 | Blackgrass plant response rating (blackgrass; [1]): 4 | Blackgrass plant response rating (blackgrass; [2]): 6 | Blackgrass plant response rating (blackgrass; [3]): 0 | Plant response rating, Blackgrass (blackgrass; [4]): 0 | Plant response rating, Blackgrass (blackgrass; [5]): 0 | Blackgrass plant response rating (blackgrass; [6]): 6 | Blackgrass plant response rating (blackgrass; [7]): 4 | Blackgrass plant response rating (blackgrass; [8]): 7 | Soybean plant response rating (soybean; [1]): 1 | Soybean plant response rating (soybean; [3]): 0 | Plant response rating, Soybean (soybean; [4]): 0 | Plant response rating, Soybean (soybean; [5]): 0 | Soybean plant response rating (soybean; [6]): 0 | Soybean plant response rating (soybean; [7]): 1 | Plant response rating, Soybean (soybean; [18]): 4 | Soybean plant response rating (soybean; [8]): 4 | Corn plant response rating (corn; [1]): 0 | Corn plant response rating (corn; [2]): 0 | Corn plant response rating (corn; [3]): 0 | Plant response rating, Corn (corn; [4]): 0 | Plant response rating, Corn (corn; [5]): 0 | Corn plant response rating (corn; [6]): 0 | Corn plant response rating (corn; [7]): 0 | Corn plant response rating (corn; [8]): 0 | Morningglory plant response rating (morningglory; [1]): 3 | Morningglory plant response rating (morningglory; [2]): 6 | Morningglory plant response rating (morningglory; [3]): 0 | Plant response rating, Morningglory (morningglory; [4]): 0 | Plant response rating, Morningglory (morningglory; [5]): 0 | Morningglory plant response rating (morningglory; [6]): 0 | Morningglory plant response rating (morningglory; [7]): 3 | Morningglory plant response rating (morningglory; [8]): 6 | Barnyardgrass plant response rating (bamyardgrass; [16]): 0 | Barnyardgrass plant response rating (bamyardgrass; Rate 125 g/ha, Postemergence section (flood test species), scale 0 to 10, 0 no effect, 10 complete control): 0 | Barnyardgrass plant response rating (bamyardgrass; [11]): 0 | Barnyardgrass plant response rating (bamyardgrass; [12]): 0 | Giant foxtail plant response rating (giant foxtail; [1]): 4 | Giant foxtail plant response rating (giant foxtail; [2]): 5 | Giant foxtail plant response rating (giant foxtail; [3]): 9 | Plant response rating, Giant foxtail (giant foxtail; [4]): 9 | Plant response rating, Giant foxtail (giant foxtail; [5]): 9 | Giant foxtail plant response rating (giant foxtail; [6]): 10 | Giant foxtail plant response rating (giant foxtail; [7]): 0 | Giant foxtail plant response rating (giant foxtail; [8]): 9 | Redroot pigweed plant response rating (pigweed; [1]): 0 | Redroot pigweed plant response rating (pigweed; [3]): 5 | Plant response rating, Redroot pigweed (pigweed; [4]): 5 | Plant response rating, Redroot pigweed (pigweed; [5]): 6 | Redroot pigweed plant response rating (pigweed; [6]): 8 | Redroot pigweed plant response rating (pigweed; [7]): 0 | Plant response rating, Redroot pigweed (pigweed; [18]): 0 | Redroot pigweed plant response rating (pigweed; [8]): 4
